The results in this text go back to PubChem BioAssay (NCI).

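Compound exposure: 48 hours, 5 concentrations, 96-well plates. GI50: concentration for 50% inhibition of growth. At the TGI there is no net growth.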

Experiment in all cases: DTP human tumour cell line panel, 48 h
Assay [1] relates to DLD-1 colon.
In assay [2] the test system is LXFL 529 NSCLC.
In assay [3] the test system is M19-MEL melanoma.
For assay [4], the system named is DMS 273 small cell lung.
Assay [5] concerns KM20L2 colon.
For assay [6], the system named is HS 578T breast.
For assay [7], the system named is MDA-MB-435.
Assay [8] concerns HOP-18 NSCLC.
The subject of assay [9] is SNB-78 CNS.
Assay [10] deals with DU-145 prostate.

Regarding `CC(=O)C1=C([O-])C(C)OC1=O.CC(=O)C1=C([O-])C(C)OC1=O.[NH-]C1CCCC[C@H]1[NH-].[Pt+4]` (configuration not stated), the GI50 (as a rule, the concentration at which growth is held to half of that of the control) is above 100 µM in assay [1]; 36.2 µM in assay [2]; 56 µM in [3]; 44.9 µM in assay [4]; 66.7 µM in assay [5]. For the same molecule, the TGI in [1], in assay [2], in [3], in assay [4] and in assay [5] was above 100 µM in each case.

For the molecule `CN(C)c1ccc(N=Nc2c([O-])ccc3ccccc23)cc1.[C-]#[O+].[C-]#[O+].[Ir]`, the GI50 in assay [1] was 22.5 µM; in assay [2] it was 17.2 µM; in assay [3], 20.3 µM; in assay [6] it was 19.3 µM; in [5], 26 µM; in assay [7] it was 18.8 µM. For the same molecule, in [8], the GI50 was 17.2 µM. Moreover, the TGI (in general, the concentration giving total growth inhibition) in [1] was 47.8 µM; in assay [2], 31.2 µM; in assay [3], 50.2 µM; in [6] it was 70.9 µM; in assay [5] it was 59 µM; in [7], 46.1 µM. The molecule further showed a TGI in [8] of 37.2 µM.

`FC(F)(F)c1ccc2nc(Nc3ccc(Cl)c(Cl)c3)c(-c3ccccc3)nc2c1`: the TGI in [2], in assay [9], in [3], in [4], in [5] and in assay [8] was above 100 µM throughout.

`COc1cc(Oc2c(O)c(C)c(OC)c(C(C)=O)c2O)c(C(C)=O)c(O)c1C`: the TGI in assay [1], in assay [2], in [9], in [3], in assay [4] and in assay [5] was above 100 µM in each case.

Regarding `O=C1c2ccccc2C(=O)C1C(c1ccc([N+](=O)[O-])cc1)C1C(=O)c2ccccc2C1=O`, the TGI in [1], in assay [2], in assay [9], in assay [4], in assay [5] and in [8] was above 100 µM each time.

Regarding `CCO[C@@H]1C2C=CC(C2)[C@H]1[N+](=O)[O-]` (some centres not stated), the TGI in assay [1], in assay [2], in assay [9], in [3], in assay [4] and in assay [5] was above 100 µM each time. The same molecule came in with a TGI in [8] above 100 µM.

Consider `C/C=C(/CCCCNCCCC)[Si](C)(C)C`, for which the TGI was found to be 29.8 µM in assay [1]; 29.3 µM in [2]; 29.7 µM in assay [9]; 33 µM in assay [3]; 38.2 µM in [4]; 21.7 µM in assay [5].

Take `O=C(Cc1ccccc1)N/N=C(\C1=Nc2ccc([N+](=O)[O-])cc2NC1O)C(O)c1ccc([N+](=O)[O-])cc1` (configuration not stated): the TGI in [1], in [2], in [9], in [3], in assay [5] and in assay [8] was above 100 µM throughout.

In the case of `CCSc1nc(COC(=O)NC)c(COC(=O)NC)n1C`, the TGI in assay [1] is above 100 µM; in [2], above 54.8 µM; in [9], above 85.9 µM; in [3] it was above 79.9 µM; in assay [4] it was above 100 µM; in assay [10], above 23.2 µM. Besides, the TGI in assay [6], in [5], in [7] and in assay [8] was above 100 µM throughout.

As for `COc1ccc2c(C(=O)O)cc3cc(OC)c(OC)cc3c2c1`, the TGI in [1], in [2], in assay [9], in assay [3], in assay [4] and in assay [5] was above 100 µM throughout. Further, the TGI in assay [8] was above 100 µM.

`O=C1CC2C(=O)N(Cc3ccccc3)C1C(S(=O)(=O)c1ccccc1)C2S(=O)(=O)c1ccccc1` (configuration not stated): the concentration for total growth inhibition (TGI) stood at 3.13 µM in [1]; 2.61 µM in assay [2]; 36.1 µM in assay [9]; 4.09 µM in assay [3]; 18.6 µM in [4]; 7.4 µM in assay [5]. Further, the TGI in assay [8] amounted to 13.8 µM.

For `CCOC(=O)N1C2C=C(C)C(C3C(C)C(=O)N31)N(C(=O)c1ccccc1)O2` (configuration not stated), the TGI in [1], in assay [2], in assay [9], in assay [3], in assay [4] and in assay [8] was above 100 µM in each case.

For `COC(=O)[C@]1(C)CCC[C@@]2(C)C1CCC1=C[C@@]3(C(C)C)CC[C@]12OO3` (some centres not stated), the TGI in [1] is 71.5 µM; in assay [2], 74.1 µM; in assay [9], above 100 µM; in [3] it was 65.7 µM; in [4], 87.2 µM.

`Clc1ccc(CN2COc3c(cc(Cl)c4cccnc34)C2)cc1`: the TGI was 13.6 µM in assay [1]; 2.71 µM in [2]; 17.9 µM in [9]; 6.06 µM in assay [3]; 3.53 µM in [4]; 27.5 µM in assay [5]. This molecule had a TGI in [8] of 16.4 µM.

Take `Cc1cccc(C)c1NC(=O)CCCC(=O)C1CCC/C1=N\NC(=O)C(=O)NN` (configuration not stated): the TGI in [1], in assay [2], in assay [9], in assay [4], in assay [5] and in assay [8] was above 100 µM throughout.

Consider `CC1CC2(CC[C@@H]1O)OCCO2` (some centres not stated), for which the TGI in assay [1], in assay [2], in [9], in [3] and in assay [4] was above 100 µM throughout.

In the case of `Cc1c2ccncc2c(C)c2c1[nH]c1ccc(OC(C)(C)C)cc12`, the TGI in assay [1] is 10.4 µM; in assay [2], 5.5 µM; in assay [9], 6.53 µM; in [3], 5.54 µM; in assay [4], 4.36 µM; in assay [5], 11.1 µM.

On to `C=CCc1ccc(O)c(-c2cc(C3Oc4c(-c5cc(CC=C)ccc5O)cc(O)cc4[C@@H]3CO)ccc2O)c1` (some centres not stated), for which the total growth inhibition concentration (TGI) in assay [1] is 38.6 µM; in [2], 52.5 µM; in assay [9], above 100 µM; in assay [3], above 100 µM; in assay [4], 44.5 µM; in [5], 60.3 µM. Moreover, in assay [8], the TGI is above 100 µM.

For the molecule `CCC1CN2CCc3cc(OC)c(OC)cc3C2CC1CC1c2cc(OC)c(OC)cc2CCN1C(=O)CNC(=O)OC(C)(C)C` (configuration not stated), the TGI in [1] was 36.9 µM; in assay [2], 36.2 µM; in assay [9] it was 51 µM; in [3], 61.2 µM; in [4], 37.8 µM; in assay [5] it was 90.6 µM. In addition, the TGI in assay [8] was found to be 70.7 µM.

Regarding `COC(=O)C(Cc1nc2ccc(Cl)cc2[nH]c1=O)C(=O)C(=O)Nc1ccccc1[N+](=O)[O-]` (configuration not stated), the TGI in [1], in [2], in assay [9], in assay [3], in assay [4] and in assay [5] was above 100 µM in each case. In assay [8], the TGI is above 100 µM.

On to `O=c1cccccc1NCCCCCCCCCNc1cccccc1=O`, for which the TGI is above 100 µM in assay [1]; 24.4 µM in assay [2]; 82.4 µM in [9]; 51 µM in assay [3]; 32.6 µM in [4]; 77.5 µM in assay [5].

On to `COc1ccc(COCC(Cn2ccnc2)OCc2ccc(C(=O)O)cc2)cc1` (configuration not stated), for which the TGI in assay [1], in assay [2], in assay [9], in [3] and in assay [5] was above 100 µM each time.

In the case of `CC(C)=CC(=O)CC(=O)C(=O)Nc1ccc(Cl)c(Cl)c1`, the TGI in assay [1], in assay [2], in [9], in [3], in assay [4] and in [5] was above 100 µM in each case.

Regarding `COc1ccc2cc3n(c2c1)CCc1cc(OC)c(OC)cc1-3`, the TGI in [1], in [2], in assay [9], in assay [3], in [4] and in assay [5] was above 100 µM each time. The same molecule returned a TGI in [8] above 100 µM.

Consider `CCOC(=O)/C(C#N)=C1\N[C@H](C(=O)OCC)CO1`, for which the TGI in assay [1], in assay [2], in assay [9], in [3], in assay [5] and in assay [8] was above 100 µM each time.

Regarding `CC(CCCOC(c1ccccc1)(c1ccccc1)c1ccccc1)OC(=O)Nc1cc([N+](=O)[O-])cc([N+](=O)[O-])c1` (configuration not stated), the TGI in [1], in assay [2], in assay [3] and in assay [4] was above 100 µM throughout.

With `O=C(O)c1c[nH]cc1C(=O)O`, the TGI in [1], in [2], in [9], in assay [3], in [4] and in [5] was above 100 µM throughout.

For `FC(F)(F)C12C34C=CC5(CCC6(C=CC1(CC3)O6)C52C(F)(F)F)O4` (configuration not stated), the TGI in [2], in assay [9], in assay [3], in assay [4], in assay [5] and in assay [8] was above 100 µM each time.

For `CC(=O)Oc1ccccc1C(=O)C1c2cccc(O)c2C(=O)c2c(O)cccc21`, the TGI in assay [1] was 12.2 µM; in assay [2], 4.03 µM; in assay [9], above 24.8 µM; in assay [3], 2.94 µM; in [4], 3.8 µM; in assay [5], 5.57 µM. In assay [8], this molecule registered a TGI of 4.87 µM.

For the molecule `N#Cc1ccccc1NC(=O)c1ccccc1`, the TGI in assay [1], in assay [9], in assay [3], in [4], in [5] and in [8] was above 100 µM each time.

As for `CC(=O)NC(CCCN(Cc1ccccc1)C(=O)N(CCCl)N=O)C(=O)NCc1ccccc1` (configuration not stated), the TGI in assay [1], in assay [2], in [9], in assay [4], in assay [5] and in assay [8] was above 100 µM throughout.

As for `N/N=C(\Cc1ccccc1)NN=C(N)N`, the TGI in [1], in [2], in assay [9], in assay [3] and in assay [8] was above 100 µM each time.

For `C=C(N=[N+]=[N-])c1cn(C2CC(O)C(CO)O2)c(=O)[nH]c1=O` (configuration not stated), the TGI in assay [1], in [2], in assay [9], in [3], in assay [4] and in assay [5] was above 100 µM throughout. Moreover, the TGI in assay [8] was above 100 µM.

In the case of `CCOc1ccc(NC(=O)CC2SC(N)=NC2=O)cc1` (configuration not stated), the TGI in [1], in assay [2], in [9], in assay [3] and in assay [5] was above 100 µM throughout.

With `CCCCCCCCCCCCC(=O)[O-].CCCCCCCCCCCCC(=O)[O-].CCCCCCCCCCCCC(=O)[O-].CCCCCCCCCCCCC(=O)[O-].[Mo+2].[Mo+2]`, the GI50 was 7.9 µM in assay [1]; 10.7 µM in assay [2]; 19.9 µM in assay [9]; 18.7 µM in assay [3]; 16.2 µM in assay [5]; 20.6 µM in [8]. Besides, the TGI in [1] was 23.3 µM; in assay [2], 22.8 µM; in [9], 67.3 µM; in assay [3], above 100 µM; in assay [5] it was 34.9 µM; in [8] it was 34.9 µM.

Consider `CN(C)C(=O)C1CCC(=C2C(=O)OC(C)(C)OC2=O)N1C` (configuration not stated), for which the TGI in assay [1], in [2], in assay [9], in assay [3], in [4] and in assay [5] was above 100 µM in each case. The TGI in [8] was above 100 µM.
